Laboratory results published in paper PMC8797470, “Disruption of the pentraxin 3/CD44 interaction as an efficient therapy for triple‐negative breast cancers” (Clinical and Translational Medicine, 2022).
Ends that are not written are not given here.

Assays:
[1] = tested on: MDA-MB-231 cells; assay: Sphere formation assay; format: cell-based, human; conditions: MDA-MB-231 cells treated with the recombinant protein
Method: Note that 5 × 10^3 MDA‐MB‐231 cells were seeded in ultralow attachment plates (Corning) per well. Then, cultured in conditional medium containing the treatment of TGF‐β1, PTX3, PTX3NA, RI37, GI40, IgG1κ, PTX3 Ab‐10 or PTX3 Ab‐49 and the DMEM/F12 (Gibco) added with B27 (Invitrogen), 10 ng/ml bFGF (Peprotech) and 20 ng/ml EGF (Abcam). Number of spheres was calculated by microscope after 2 weeks.

[2] = target: T1, CD44 (Homo sapiens, UniProt P16070); assay: Ligand binding ELISA on immobilised CD44; parameters: purchased Sino Biological Inc. 12211-H08H; conditions: wells coated with 10 μg/ml CD44, 2 h, OD 450 nm; for binding to immobilised CD44: HRP-conjugated recombinant proteins; for CD44 binding activity of peptides: biotinylated peptides, modified peptides compared with parental peptides
Method: Plate wells (9018; Corning Costar) were coated with 10 μg/ml of CD44 (12211‐H08H; Sino Biological Inc.) in PBS (pH 7.2) and then blocking for 1 h with the blocking buffer including 3% milk in PBS. For the stability binding experiments, the PTX3‐devired biotinylated peptides were pre‐incubated in serum for 1, 2, 4 or 6 h. For the binding experiments, the horseradish peroxidase (HRP)‐conjugated recombinant PTX3, PTX3/N, PTX3/C and PTX3NA or PTX3‐devired biotinylated peptides AD9, GR9, P2rdAD9 and P12rdGR9 (32310; LEADGENE) was responded in the well for 2 h. For the peptide of competition experiments, the PTX3‐devired biotinylated peptides RI37 and GI40 were diluted at the indicated concentration in PBS. After 2 h, PBS washed three times and then incubated with 5 μg/ml HRP‐conjugated PTX3 in PBS for 1 h at room temperature (RT). For the antibody competition experiments, Ab‐10 and Ab‐49 were incubated with 5 μg/ml HRP‐conjugated PTX3 in PBS for 2 h at RT. After incubation, the mixtures was responded in the well for 1 h at RT and then PBS washed three times, tetramethyl benzidine (TMB) was used to detect the bound HRP conjugate. After 15 min, the peroxidase reaction was stopped by adding 0.1 M H2SO4. Next, ELISA plate reader was used to detect the optical densities at 450 nm.
Target sequence in this assay (P16070 21-220 limits assumed): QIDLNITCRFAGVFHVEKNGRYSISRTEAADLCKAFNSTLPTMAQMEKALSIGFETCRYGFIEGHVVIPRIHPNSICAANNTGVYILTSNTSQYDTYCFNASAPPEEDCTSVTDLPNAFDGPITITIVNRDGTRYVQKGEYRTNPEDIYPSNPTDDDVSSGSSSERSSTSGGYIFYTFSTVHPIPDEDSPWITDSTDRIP

[3] = target: T1, CD44; assay: Surface plasmon resonance (BIAcore) of N-terminal CD44 on immobilised full-length PTX3; format: binding; conditions: mean ± standard deviation
Source text: The BIAcore 3000 system (GE Healthcare Co. Ltd.) was used to determine the direct protein interaction between the full‐length PTX3 (#1826‐TS; R&D Systems) and the N‐terminal of CD44 (#CD44‐3961H; Creative Biomart). Full‐length PTX3 was immobilised onto a CM5 sensor chip (GE Healthcare Co. Ltd.); the immobilisation level was 4000–6000 response units using amine‐coupling chemistry. Briefly, a mixture of 1‐Ethyl‐3‐(3‐dimethylaminopropyl) carbodiimide hydrochloride (EDC) and N‐hydroxysuccinimide activated the surface of the chip, and then diluted full‐length PTX3 (10 μg/ml in acetate buffer pH 3) was injected into the flow cells for immobilisation. Finally, the remaining activated groups were blocked by ethanolamine. The binding parameters of the experiment were measured over a 1‐min association phase and then followed by a 2‐min dissociation phase at a fluid flow rate of 10 μl/min. Phosphate‐buffered saline (PBS, pH 7.2) was used as the analyte running buffer; 0.05% sodium dodecyl sulphate was used to regenerate the chip surface before the next analyte concentration was applied. The 1:1 Langmuir binding model (BIAevaluation 4.1; GE Healthcare Co. Ltd.) were performed to calculate its corresponding association and dissociation rate constants to determine the affinity.
Target sequence in this assay (P16070 32-120 limits assumed): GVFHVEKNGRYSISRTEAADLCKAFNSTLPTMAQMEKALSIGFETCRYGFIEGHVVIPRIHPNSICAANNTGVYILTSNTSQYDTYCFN

[4] = tested on: MDA-MB-231 cells; assay: Transwell migration and Matrigel invasion assays; format: cell-based, human; conditions: treatment in lower well, 18 h
Source text: (§1) In migration assay, MDA‐MB‐231 cells seeded in 8.0 μm pore polycarbonate membrane inserts (BD Biosciences) in 24‐well plates. In Matrigel invasion assay, inserts were pre‐coated with an appropriate amount of Matrigel first, and the same number of cells seeded on the Matrigel. After cells adhered on the inserts, serum‐free DMEM medium added in the upper wells. Serum‐free medium containing the treatments of TGF‐β1, PTX3, PTX3NA, PTX3/N, PTX3/C, RI37, GI40, AD9, GR9, IgG1κ, PTX3 Ab‐10 or PTX3 Ab‐49 were then mixed into the lower wells of the 24‐well plates. After incubating for 18 h, cells outside the insert were removed by wiping. The inside the inserts were then stained by 4′,6‐diamidino‐2‐phenylindol (DAPI). Fluorescence microscope was used for counting the total number of migrated cells with 200× magnification. Different from the experimental design for the MDA‐MB‐231 cells, the migrated 4T1‐Luc2 cells in the inside of the insert were detected by luciferase activity.

[5] = tested on: RANKL, MMP2, NANOG and TWIST2 transcription in MDA-MB-231 cells; assay: Real-time quantitative PCR of PTX3-induced genes; format: cell-based, human; conditions: wortmannin 100 nM, BAY 11-7085 2 μM, PD98059 10 μM; pre-treated 1 h, then PTX3 24 h
Source text: TRIsure RNA extraction reagent (Invitrogen) extracted total RNA. SuperScript™ III Reverse Transcriptase (Invitrogen) was used to synthesis cDNA. Next, SensiFAST™ SYBR (BIOLINE) was applied to perform real‐time quantitative PCR (Q‐PCR) assay. CFX connect Real‐Time PCR System (BIO‐RAD) executed real‐time fluorescence monitoring and the melting curve analysis according to the manufacturer's recommendations. The following pairs of specific primers—human CEBPD (F): 5′‐[…]‐3′ and CEBPD (R): 5′‐[…]‐3′, human PTX3 (F): 5′‐ […]‐3′ and PTX3 (R): 5′‐ […]‐3′, human MMP2 (F): 5′‐ […]‐3′ and MMP2 (R): 5′‐ […]‐3′, human RANKL (F): 5′‐ AGAGC GCAGATGGATCCTAA‐3′ and RANKL (R): 5′‐ TTCCTTTTGCACAGC TCCTT‐3′, human TWIST2 (F): 5′‐[…]‐3′ and TWIST2 (R): 5′‐[…]‐3′, human NANOG (F): 5′‐[…]‐3′ and NANOG (R): 5′‐ […]‐3′, human GAPDH (F): 5′‐ […]‐3′ and GAPDH (R): 5′‐ […]‐3′.

[6] = tested on: 4T1-Luc2 cells; assay: Transwell migration assay, luciferase read-out; format: cell-based, mouse; conditions: single peptide, with PTX3 treatment
Source text: as §1

[7] = target: PTX3; conditions: read-out: KD for PTX3 binding; cited from earlier work
Source text: However, knockdown of CD44 enhanced both JNK and p38 activity, implying that blockade of the PTX3/CD44 interaction positively compensates for JNK and p38 activity.

[8] = BIAcore 3000, full-length PTX3 amine-coupled to CM5 chip, N-terminal CD44 as analyte, PBS pH 7.2, 1:1 Langmuir model

Molecule: pentraxin 3 [PTX3]
- sphere formation, protein alone [1]: promoted
- binding to immobilised CD44 [2]: could bind
- association rate constant, K on [3, 8]: 1.30 ± 0.32 × 10^2 M^–1 s^–1
- dissociation rate constant, K off [3, 8]: 2.43 ± 2.35 × 10^–6 s^–1
- Kd ([3]; N-terminal CD44 and full-length PTX3 binding, calculated from the rate constants, read-out: equilibrium dissociation constant, K D): 0.021 ± 0.012 µM
- migration and invasion, protein alone [4]: enhanced

Molecule: COc1cccc(-c2cc(=O)c3ccccc3o2)c1N [PD98059]
- PTX3-induced RANKL, TWIST2, MMP2 and NANOG transcription with pathway inhibitors [5]: significantly hampered

Molecule: CC(C)(C)c1ccc(S(=O)(=O)/C=C/C#N)cc1 [BAY 11‐7085]
- PTX3-induced RANKL, TWIST2, MMP2 and NANOG transcription with pathway inhibitors [5]: significantly hampered

Molecule: AD9: peptide, PTX3 amino acids 209–217 (ACIWVKATD; also: biotin, position not given here)
- CD44 binding activity of peptides [2]: significantly high binding activity
- PTX3-induced migration of 4T1-Luc2 cells [6]: efficiently inhibited

Molecule: COC[C@H]1OC(=O)c2coc3c2[C@@]1(C)C1=C(C3=O)[C@@H]2CCC(=O)[C@@]2(C)C[C@H]1OC(C)=O [wortmannin]
- PTX3-induced RANKL, TWIST2, MMP2 and NANOG transcription with pathway inhibitors [5]: significantly hampered

Molecule: PTX3/N: recombinant truncated mutant, N‐terminus of PTX3, amino acids 19–182
- binding to immobilised CD44 [2]: not

Molecule: TSG‐6: secretory protein, CEBPD‐responsive gene product that interacts with PTX3
- Kd [7]: 0.314 to 0.648 µM

Molecule: GR9: peptide, PTX3 amino acids 352–360 (GGAESCHIR; also: biotin, position not given here)
- CD44 binding activity of peptides [2]: significantly high binding activity
- PTX3-induced migration of 4T1-Luc2 cells [6]: efficiently inhibited
